Laboratory results taken from the NIST ThermoML archive (doi:10.1016/j.jct.2008.03.013).

Experiments:
[1] = refractive index (Na D-line) (dimensionless); xn = mol fraction of the nth substance listed; details: 298.15 K, 100 kPa, Liquid, Standard Abbe refractometry
[2] = xn = mol fraction of the nth substance listed; details: 100 kPa, Liquid
[3] = refractive index (Na D-line) (dimensionless); details: 298.15 K; 101.33 kPa; Liquid; Standard Abbe refractometry
[4] = 100 kPa, Liquid

CCCCn1cc[n+](C)c1.COS(=O)(=O)[O-] [1-butyl-3-methylimidazolium methyl sulfate] + CCO
[1]
Details	refractive index
x2 = 0	1.47792
x2 = 0.0651	1.4759
x2 = 0.0922	1.475
x2 = 0.2011	1.4711
x2 = 0.3091	1.46633
x2 = 0.402	1.46114
x2 = 0.491	1.45512
x2 = 0.5788	1.4478
x2 = 0.7142	1.43243
x2 = 0.807	1.41714
x2 = 0.895	1.39734
x2 = 0.9445	1.38212

[2]
Details	mass density, 298.15 K [kg/m3]	mass density, 313.15 K [kg/m3]	mass density, 328.15 K [kg/m3]	viscosity, 298.15 K [mPa·s]	viscosity, 313.15 K [mPa·s]	viscosity, 328.15 K [mPa·s]
x2 = 0	1213.43	1203.48	1193.59	182.3	84.7	45.35
x2 = 0.0651	1205.77	1195.71	1185.73	156.7	74.9	40.76
x2 = 0.0922	1202.49	1192.4	1182.4	131.9	64.1	35.9
x2 = 0.2011	1187.41	1177.24	1167.12	88.6	46.28	27.16
x2 = 0.3091	1169.23	1158.88	1148.61	56.32	31.64	19.89
x2 = 0.402	1150.09	1139.56	1129.14	37.85	22.35	14.41
x2 = 0.491	1127.58	1117.04	1106.55	25.04	15.62	10.53
x2 = 0.5788	1100.78	1089.92	1079.14	16.22	10.58	7.263
x2 = 0.7142	1043.7	1032.43	1021.2	7.427	5.271	4.019
x2 = 0.807	989.09	977.5	965.92	4.349	3.197	2.503
x2 = 0.895	917.29	905.22	893.02	2.465	1.863	1.432
x2 = 0.9445	863.52	851.11	838.48	1.733	1.319	1.033

CCO [ethanol]
Details	refractive index
[3]	1.36023

[4]
Details	mass density [kg/m3]	viscosity [mPa·s]
298.15 K	785.46	1.082
313.15 K	772	0.827
328.15 K	758.55	0.641
